Test results from patent US20110081298A1, “RATIOMETRIC BIOLUMINESCENT SENSOR FOR IMAGINING OXIDATIVE STRESS” (priority 2009, published 2011).
“Also recorded” adds a separate entry of the source. Residues, ends and D or L forms follow the SMILES beside them. *: point of attachment. Cbz = O=C(OCc1ccccc1)*; CH2F = FC*

Key:
[1] = tested on: HeLa-fR cells; assay: RLuc8/fLuc bioluminescence and RLuc8:fLuc ratio in HeLa-fR cells (Dual-Glo); type: cell-based, human; settings: for RLuc8:fLuc ratio of STS-treated cells with inhibitor/scavenger: inhibitor 1 hour before 10 μM STS for 24 hours, working concentrations of Table 7; for RLuc8:fLuc ratio, increasing doses of inhibitor/scavenger: pretreated 1 hour prior to 10 μM STS, 24 hr; for RLuc8:fLuc bioluminescent ratio: HeLa-fR cells treated with the stress/cell death inducer alone
Procedure: To induce cellular stress, HeLa cells were treated with Staurosporine (STS), hydrogen peroxide, or hypoxanthine and xanthine oxidase for 0 to 24 hours at concentrations indicated in Table 7. Stressed and unstressed cells were also incubated with inhibitors that target various intracellular protein degradation/modification pathways. The specific compounds/proteins that were utilized as inhibitors and the respective final working concentrations are also listed in Table 7. Inhibitors were added to cells 1-hr prior to adding inducers of cellular stress and left in the media for the duration of the treatment. Analogous controls were conducted in the absence of stress inducers.
(§1) To induce caspase dependent PCD, cells were treated with staurosporine (STS), Doxorubicin (DOX), or camptothecin (CPT) (Sigma, St. Louis, Mo.) in complete medium at indicated concentrations and time points. To induce caspase-independent PCD, cells were treated with sodium selenite (SSe, MP Biomedicals, Solon, Ohio) or resveratrol (Res, Enzo Life Sciences, Plymouth Meeting, Pa.) in complete medium at indicated concentrations and time points. In studies where allopurinol (Allo, MP Biomedicals) is used as an inhibitor, it was added at a final concentration of 100 μM to cells in complete medium for 1 hour prior to the addition of the death-inducing drugs and remained in the medium throughout the study.
(§2) Unless otherwise noted, bioluminescence assays were performed 24 hours after plating 10,000 HeLa-fR cells/well in a white-walled 96 well tissue culture plate (BD Biosciences, Franklin Lakes, N.J., USA).

[2] = tested on: intracellular H2O2; assay: Intracellular H2O2 by CM-H2DCFDA, HeLa-fR cells; type: cell-based, human; settings: for intracellular H2O2 (CM-H2DCFDA fluorescence) with inhibitor/scavenger: STS-treated HeLa-fR cells
Procedure: Catalase and Allopurinol: HeLa-fR cells were plated at a density of 120,000 cells per well of a 12 well tissue culture plate (BD Biosciences). 24 hours later, the cells were incubated with 10 μM CM-H2DCFDA (Invitrogen) for 30 minutes at 37° C. Cells were then treated with PBS (pH 7.4), 50 U/mL catalase or 100 μM allopurinol for one hour. PBS (pH 7.4) or 10 μM STS was subsequently added to the cells, and all compounds remained on the cells for 24 hours. Intracellular H2O2 levels were determined by subjecting the cells to flow cytometry using a Guava EasyCyte (Guava Technologies). Analysis of flow cytometry data was accomplished using FlowJo software (Treestar).

[3] = tested on: HeLa-fR cells; assay: Western blot of fLuc and RLuc8 protein, HeLa-fR cells; type: cell-based, human; settings: STS-treated cells pretreated with the inhibitor/scavenger
Procedure: Following indicated culture conditions, HeLa-fR cells were washed 3 times with 1×PBS (pH7.4). Proteins were extracted using RIPA extraction buffer (50 mM Tris HCL, pH 7.4, 1% Triton X-100, 0.25% Na-deoxycholate, 150 mM NaCl, 1 mM EDTA and a Complete Mini Protease Inhibitor Cocktail Tablet (Roche)) at 4° C. for 30 minutes with constant agitation. Total protein concentrations were measured using a BCA assay (Pierce, Rockford, Ill., USA). […] Proteins separated by electrophoresis were transferred to nitrocellulose membranes in 1× Transfer Buffer (Bio-Rad) at 15V for 30 minutes. Membranes were blocked in Blocking Buffer for Fluorescent Western Blotting (Rockland Immunochemicals, Gilbertsville, Pa., USA) for 60 minutes. The membranes were incubated with anti-fLuc (Sigma), anti-rLuc (Millipore, Billerica, Mass.) or anti-β-actin (Abcam, Cambridge, Mass.) primary antibodies in blocking buffer overnight. […] The fluorescent signal from the membranes was imaged using the Odyssey Infrared Imaging System (Li-Cor Biosciences, Lincoln, Nebr., USA).

[4] = tested on: caspases 3 and 7; assay: Caspase-Glo 3/7 assay, HeLa-fR cells; type: cell-based, human
Procedure: Caspase Activity: PCD was induced (as described above) 24 hours after plating 10,000 cells/well in white-walled 96 well tissue culture plates (BD Biosciences). After indicated treatment times, the Caspase 3/7-Glo Assay (Promega) was performed according to the manufacturer's protocol and bioluminescence measurements were obtained from and Infinite 200 plate reader (Tecan). All values were normalized to controls (i.e. pre-treatment values).

[5] = tested on: HeLa-fR cells; assay: TUNEL assay for DNA fragmentation, HeLa-fR cells; type: cell-based, human
Procedure: DNA Fragmentation: PCD was induced (as described above) 24 hours after plating 300,000 cells/well in 6 well tissue culture plates (BD Biosciences). After indicated treatment times, TUNEL assays for DNA fragmentation were performed using the TUNEL/ApoBRDU assay kit (Invitrogen) according to the manufacturer's protocol. Percent DNA fragmentation was determined using flow cytometry on a Guava EasyCyte flow cytometer (Guava Technologies, Hayward, Calif.). Analysis of flow cytometry data was performed using FlowJo software (Treestar, Ashland, Oreg.).

[6] = tested on: MCF7-fR cells; assay: RLuc8:fLuc ratio in MCF7-fR cells (Dual-Glo); type: cell-based, human
Procedure: as §1, §2

[7] = tested on: intracellular H2O2; assay: Intracellular H2O2 by CM-H2DCFDA, MCF7-fR cells; type: cell-based, human
[8] = tested on: 293T/17-fR cells; assay: RLuc8:fLuc ratio in 293T/17-fR cells (Dual-Glo); type: cell-based, human; settings: STS-treated 293T/17 cells
[9] = tested on: HeLa-fR tumor xenografts; assay: Bioluminescence imaging of HeLa-fR tumor xenografts in nude mice; type: in vivo; settings: intratumoral, 24 hours
From the text: Five week old female nude mice (Charles River Laboratories International LLC, Wilmington, Mass.) were obtained and given free access to food and water. […] For tumor induction, 2.5×10^6 HeLa-fR cells were resuspended in PBS (pH 7.4) and subcutaneously implanted in the lower right flank of lightly anesthetized mice (1% isoflurane/oxygen mixture). Once the tumors reached ˜1 cm in diameter, each group was imaged prior to any inhibitor/drug treatment. Briefly, the animals were i.p. injected with 200 μL of sterile 15 mg/mL luciferin (Biosynth, Itasca, Ill.) in PBS (pH 7.4) and imaged using an IVIS Lumina II (Caliper Life Sciences, Hopkinton, Mass.) under anesthesia (2.5% isoflurane/oxygen mixture). The substrate was allowed to clear for 3 hours before the animals received an i.v. injection of 100 μL of 500 μg/mL sterile coelenterazine (NanoLight, Pinetop, Ariz.) in a 20/20/60 mixture of USP grade ethanol/propylene glycol/PBS and imaged using an IVIS Lumina II under anesthesia (2.5% isoflurane/oxygen mixture). Immediately following the second imaging session animals were divided into 4 groups (PBS/PBS, PBS/STS, Allo/PBS, Allo/STS) and the inhibitor (1 mM Allopurinol) or control (PBS, pH 7.4) was intratumorally injected. After 1 hour, the cell death inducer (500 μM STS) or control (PBS, pH 7.4) was intratumorally injected. All intratumoral injections were of a volume of 25 μL. 24 hours later, the animals were imaged in the same manner as stated previously.
All image analysis was performed using Living Image Software (Caliper Life Sciences). Images were first background subtracted (treating the animal body as the background) and automatic (5% threshold) ROIs were generated around each tumor. Bioluminescent counts were recorded and used in the ratio calculations. For each group, data was normalized to the day 1 ratio values.

Compound: CC(=O)N[C@@H](CSC(=O)[C@]1([C@@H](O)C(C)C)NC(=O)[C@H](C)[C@@H]1O)C(=O)O [lactacystin]
- RLuc8:fLuc ratio of STS-treated cells with inhibitor/scavenger [1]: increase in the RLuc8:fLuc ratio

Compound: catalase
- intracellular H2O2 (CM-H2DCFDA fluorescence) with inhibitor/scavenger [2]: decrease in CM-H2DCFDA fluorescence
- fLuc protein level vs STS without inhibitor [3]: higher levels of fLuc protein
- RLuc8:fLuc ratio of STS-treated cells with inhibitor/scavenger [1]: significant reduction (p<0.01)
- RLuc8:fLuc ratio, increasing doses of inhibitor/scavenger [1]: reducing the Rluc8:fLuc ratio, in a dose-dependent manner

Compound: CC[C@H](C)[C@H](NC(=O)[C@H]([C@@H](C)CC)N(C)C(C)=O)C(=O)N[C@H](C(=O)N[C@@H](CC(C)C)C(=O)[C@@]1(C)CO1)[C@@H](C)O [epoxomicin]
- RLuc8:fLuc ratio of STS-treated cells with inhibitor/scavenger [1]: increase in the RLuc8:fLuc ratio

Compound: COC(=O)C[C@H](NC(=O)[C@H](C)NC(=O)[C@@H](NC(=O)OCc1ccccc1)C(C)C)C(=O)CF [z-vad-fmk] (Cbz-Val-Ala-Asp(OMe)-CH2F)
- RLuc8:fLuc ratio of STS-treated cells with inhibitor/scavenger [1]: none of these inhibitors significantly affected

Compound: NCCNCCNCCNCCN [TEPA, tetraethylenepentamine]
- RLuc8:fLuc ratio of STS-treated cells with inhibitor/scavenger [1]: did not reduce the Rluc8:fLuc ratio; also recorded: slight increase in Rluc8:fLuc ratio

Compound: Pepstatin A
- RLuc8:fLuc ratio of STS-treated cells with inhibitor/scavenger [1]: none of these inhibitors significantly affected

Compound: COc1cccc2c1C(=O)c1c(O)c3c(c(O)c1C2=O)C[C@@](O)(C(=O)CO)C[C@@H]3O[C@H]1C[C@H](N)[C@H](O)[C@H](C)O1 [doxorubicin, Doxorubicin]
- caspase activity / caspase dependence of cell death [4]: caspase-dependent
- RLuc8:fLuc bioluminescent ratio [1]: dose- and time-dependent increase

Compound: Oc1ncnc2[nH]ncc12 [allopurinol]
- DNA fragmentation levels vs PBS-pretreated controls ([5]; 100 μM allopurinol 1 hour prior to 55 μM SSe for 24 hours): remained unchanged
- protection against cell death (TUNEL) ([5]; HeLa-fR pretreated with allopurinol prior to STS): did not provide protection against cell death
- RLuc8:fLuc ratio, allopurinol prior to resveratrol vs resveratrol alone ([6]; MCF7-fR): significantly reduced (p<0.01)
- protective effect on fLuc ([6]; STS-treated MCF7 cells): protective effect of allopurinol on fLuc is also evident
- intracellular H2O2 levels, allopurinol prior to SSe vs SSe alone ([2]; HeLa-fR): decreased significantly (p<0.05)
- intracellular H2O2 (CM-H2DCFDA fluorescence) with inhibitor/scavenger [2]: decrease in CM-H2DCFDA fluorescence
- H2O2 levels, allopurinol prior to resveratrol vs resveratrol alone [7]: significantly reduced (p<0.01)
- fLuc protein level vs STS without inhibitor [3]: higher levels of fLuc protein
- protective effect on fLuc [8]: protective effect of allopurinol on fLuc is also evident
- protective effect on fLuc ([1]; HeLa cells treated with camptothecin and doxorubicin): protective effect of allopurinol on fLuc is also evident
- RLuc8:fLuc ratio, allopurinol prior to SSe vs SSe alone ([1]; HeLa-fR): decreased significantly (p<0.05)
- RLuc8:fLuc ratio of STS-treated cells with inhibitor/scavenger [1]: significant reduction (p<0.01)
- RLuc8:fLuc ratio, increasing doses of inhibitor/scavenger [1]: reducing the Rluc8:fLuc ratio, in a dose-dependent manner
- RLuc8:fLuc ratio, Allo/PBS vs PBS/PBS groups [9]: decreased slightly
- RLuc8:fLuc ratio, Allo/STS vs PBS/STS groups ([9]; inhibitor 1 hour before STS): significant reduction in the RLuc8:fLuc ratio (p<0.05)

Compound: O=S(=O)(O)c1cc(O)c(O)c(S(=O)(=O)O)c1 [Tiron]
- RLuc8:fLuc ratio of STS-treated cells with inhibitor/scavenger [1]: none of the superoxide scavengers significantly reduced

Compound: CC1(C)CC(O)CC(C)(C)N1[O] [TEMPOL]
- RLuc8:fLuc ratio of STS-treated cells with inhibitor/scavenger [1]: none of the superoxide scavengers significantly reduced

Compound: CC(C)[C@H](NC(=O)OCc1ccccc1)C(=O)N[C@H](C=O)Cc1ccccc1 [Calpain Inhibitor III] (Cbz-Val-Phe-aldehyde)
- RLuc8:fLuc ratio, inhibitor on untreated (−STS) cells ([1]; HeLa-fR, no STS): increase in the Rluc8:fLuc ratio
- RLuc8:fLuc ratio of STS-treated cells with inhibitor/scavenger [1]: none of these inhibitors significantly affected

Compound: MnTMPyP
- RLuc8:fLuc ratio of STS-treated cells with inhibitor/scavenger [1]: none of the superoxide scavengers significantly reduced

Compound: OC[C@@H](O)[C@@H](O)[C@H](O)[C@H](O)CO [mannitol]
- RLuc8:fLuc ratio of STS-treated cells with inhibitor/scavenger [1]: did not reduce the Rluc8:fLuc ratio

Compound: Cl.N [ammonium chloride]
- RLuc8:fLuc ratio of STS-treated cells with inhibitor/scavenger [1]: none of these inhibitors significantly affected

Compound: CC(C)C[C@@H](C=O)NC(=O)[C@H](CC(C)C)NC(=O)[C@H](CC(C)C)NC(=O)OCc1ccccc1 [MG-132] (Cbz-Leu-Leu-Leu-aldehyde)
- RLuc8:fLuc ratio of STS-treated cells with inhibitor/scavenger [1]: increase in the RLuc8:fLuc ratio

Compound: CC(=O)Oc1ccccc1C(=O)O [aspirin, acetylsalicylic acid]
- intracellular H2O2 (CM-H2DCFDA fluorescence) with inhibitor/scavenger [2]: decrease in CM-H2DCFDA fluorescence
- fLuc protein level vs STS without inhibitor [3]: higher levels of fLuc protein
- RLuc8:fLuc ratio of STS-treated cells with inhibitor/scavenger [1]: significant reduction (p<0.01)
- RLuc8:fLuc ratio, increasing doses of inhibitor/scavenger [1]: reducing the Rluc8:fLuc ratio, in a dose-dependent manner

Compound: CC[C@@]1(O)C(=O)OCc2c1cc1n(c2=O)Cc2cc3ccccc3nc2-1 [camptothecin]
- caspase activity / caspase dependence of cell death [4]: caspase-dependent
- RLuc8:fLuc bioluminescent ratio [1]: dose- and time-dependent increase
